From PubChem BioAssay (NCI)
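Where inhibition never reached the appropriate level, the endpoint shown equals the highest concentration tested. Otherwise, values were interpolated linearly from a five-concentration, 48-hour dose response in 96-well plates. The concentration for 50% growth inhibition is given as GI50. The concentration for full growth arrest is given as TGI.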

Key:
Test in all cases: NCI anticancer screen, dose series, 48 h
[1] = system: RPMI-8226 leukemia
[2] = system: BT-549 breast
[3] = system: A498 renal
[4] = system: UACC-257 melanoma
[5] = system: KM12 colon
[6] = system: SK-MEL-5 melanoma
[7] = system: A549 NSCLC
[8] = system: LOX IMVI melanoma
[9] = system: SF-268 CNS
[10] = system: SNB-19 CNS

| Structure (SMILES) | TGI [1] [µM] | TGI [2] [µM] | TGI [3] [µM] | TGI [4] [µM] | TGI [5] [µM] | TGI [6] [µM] | TGI [7] [µM] | TGI [8] [µM] | TGI [9] [µM] | TGI [10] [µM] | GI50 [1] [µM] | GI50 [2] [µM] | GI50 [3] [µM] | GI50 [4] [µM] | GI50 [5] [µM] | GI50 [6] [µM] | GI50 [7] [µM] | GI50 [8] [µM] | GI50 [9] [µM] | GI50 [10] [µM] |
| --- | --- | --- | --- | --- | --- | --- | --- | --- | --- | --- | --- | --- | --- | --- | --- | --- | --- | --- | --- | --- |
| Nc1ccc2c(c1)C(=O)c1ccc(F)cc1-2 | > 100 | > 100 | > 100 | > 100 | > 100 | > 100 | > 100 | > 100 | > 100 | > 100 |  |  |  |  |  |  |  |  |  |  |
| CCCCCCN(CCCCCC)CCCNc1nccc2ccccc12 | 4.11 | 3.47 | 2.8 | 3.54 | 3.56 | 3.13 | 7.98 | 2.94 | 8.51 | 6.01 | 1.73 | 1.79 | 1.08 | 1.84 | 1.81 | 1.7 | 2.64 | 1.43 | 2.53 | 2.09 |
| O=C(Oc1cccnc1)c1ccccc1Nc1ccnc(C(F)(F)F)c1 | 7.22 | 2.18 | 13.1 | > 100 | 2.72 | 2.35 | > 100 | > 37.8 | 14.4 | > 100 | 0.0563 | 0.104 | 2.48 | 35.7 | 0.169 | 0.203 | 0.589 | 0.0406 | 0.333 | 0.54 |
| C[N+](C)(C)CCOP(=O)(O)OP(=O)([O-])OCC1CCC(n2ccc(N)nc2=O)O1 (stereo not given) | > 100 | > 100 | > 100 | > 100 | > 100 | > 100 | > 100 | > 100 | > 100 | > 100 |  |  |  |  |  |  |  |  |  |  |
| O=C1C2=C(C(=O)c3c(O)ccc(O)c31)N(c1ccc(N3CCOCC3)nc1)Cc1ccccc1O2 | 0.945 | 0.845 | 4.74 | 1.52 | 3.92 | 2.76 | 9.11 | 0.517 | 4.06 | 3.6 | 0.265 | 0.249 | 2.3 | 0.556 | 1.55 | 1.36 | 2.88 | 0.188 | 1.37 | 1.45 |
| c1cncc(CNc2ccccc2-c2nnc(Nc3ccc4c(c3)OCO4)o2)c1 | > 100 | > 100 | > 100 | 60.4 | > 100 | > 100 | > 100 | > 100 | > 100 | > 100 | 0.16 | 0.604 | 0.0199 | 0.432 | 0.0505 | 0.0449 | 0.0686 | 0.0547 | 0.407 | 0.112 |
| O=C(N[C@H](c1ccc(Cl)c(Cl)c1)C1CNC1)c1ccc2cnccc2c1 | 14.1 | 12 | 10.5 | 18.6 | 11.9 | 23.2 | 16.5 | 13.9 | 15.6 | 21.5 | 3.9 | 2.64 | 1.78 | 5.18 | 2.34 | 11.1 | 3.29 | 3.42 | 2.56 | 8.9 |
| COc1cc2c(cc1OCCCCNC(=O)c1cc3ccccc3[nH]1)N=CC1CCCN1C2=O (stereo not given) | 96.3 | 51.1 | 44.4 | 43.8 | 52.6 | 23.9 | > 100 | 63.8 | 28 | > 100 | 5.67 | 8.79 | 22.2 | 17.4 | 16.9 | 5.65 | 28.3 | 8.96 | 4.4 | 20.2 |
